Earlier results as cited in patent US20050238616A1, “Compositions for treatment of central nervous system neoplasms, and methods of making and using the same” (Guilford Pharmaceuticals, Inc., priority 2002, published 2005).

Test system: human glioma cell lines
Conditions: several human glioma cell lines in vitro

With `CC(=O)O[C@H]1C(=O)[C@@]2(C)[C@H]([C@H](OC(=O)c3ccccc3)[C@]3(O)C[C@H](OC(=O)[C@H](O)[C@@H](NC(=O)c4ccccc4)c4ccccc4)C(C)=C1C3(C)C)[C@]1(OC(C)=O)CO[C@@H]1C[C@@H]2O` [paclitaxel] as the molecule, how does the LD90 read?
Its LD90 is 5 to 10 nM.
